Experiment [1] concerns human CD4+ and CD8+ T cells. Kind of experiment: Expansion of de-differentiated T cells in Th1, TREG or hybrid Th2/TREG polarization with or without pemetrexed. Format: cell-based. On the procedure: Human CD4^+ and CD8^+ T cells were subjected to a 3-day de-differentiation procedure (“STEP 1”). […] In addition, the T cell culture in the presence of the variable polarization conditions was performed without the novel inhibitory molecule, pemetrexed (“0”) or in the presence of variable concentrations of pemetrexed, as indicated (10 nM [“10”]; 33 nM [“33”]; or 100 nM [“100”]. After a total of 10 days of culture, the n=24 cultures were harvested and live cells were enumerated and graphed above (y-axis indicated number of cells × 10^6; input cell number was 1.5 × 10^6 cells).

The subject of experiment [2] is human CD4+ and CD8+ T cells. Kind of experiment: Flow cytometry of FOXP3, Tbet, GATA3 in extended hybrid Th2/TREG culture (days 12, 20, 32). Format: cell-based. The text has this: To evaluate these transcription factors in our manufacturing method, T cells were first subjected to the step 1 de-differentiation procedure and then re-differentiated in the hybrid TREG-Th2 culture condition (IL-2, TGF-β, and IL-4). In addition, we compared the effects of pemetrexed with a classical mTOR inhibitor.
The iTREG phenotype is considered to be unstable; as such, we evaluated the stability of T cells re-differentiated using the hybrid TREG-Th2 culture condition at delayed time points, including days 20 and 32 of culture. In addition, to test phenotype stability in a rigorous manner, between day 24 and day 32 of culture, T cells received a high level of co-stimulation (3:1 bead-to-T cell ratio) and were propagated in media without cytokines or pharmacologic agents.
FIGS. 19A-19D illustrate that extended culture of de-differentiated T cells in the hybrid Th2/TREG polarization condition containing pemetrexed results in the generation of CD4^+ T cells expressing FOXP3 and GATA3 transcription factors. […] At days 12, 20, and 32 of culture, T cells were harvested and subjected to surface flow cytometry (CD4 marker) and intra-cellular staining for the following transcription factors, FOXP3, Tbet, and GATA3. The data above show the percent CD4 cells out of the total cultured population (FIG. 19A); the percent of CD4 cells that expressed the TREG transcription factor FOXP3 (FIG. 19B); the percent of CD4 cells that expressed the Th1 transcription factor Tbet (FIG. 19C); and the percent of CD4 cells that expressed the Th2 transcription factor GATA3 (FIG. 19D).
FIGS. 20A-20D illustrate that extended culture of de-differentiated T cells in the hybrid Th2/TREG polarization condition containing pemetrexed results in the generation of CD8^+ T cells expressing FOXP3 and GATA3 transcription factors. […] At days 12, 20, and 32 of culture, T cells were harvested and subjected to surface flow cytometry (CD8 marker) and intra-cellular staining for the following transcription factors, FOXP3, Tbet, and GATA3. […]

The test system of experiment [3] is human CD4+ and CD8+ T cells. Kind of experiment: Luminex cytokine secretion in extended hybrid Th2/TREG culture (days 12, 20, 32). The format is cell-based. As to conditions: for ability of T cells to secrete IL-5 / ability of T cells to secrete IL-13: inhibitor in TREG-Th2 re-differentiation culture: temsirolimus 1.0 µM or pemetrexed 10 nM.
Excerpt: (§1) FIGS. 21A-21D illustrates that extended culture of de-differentiated T cells in the hybrid Th2/TREG polarization condition results in the generation of T cells expressing with a predominant Th2 cytokine phenotype: IL-4, IL-5, and IL-13 secretion. […] At days 12, 20, and 32 of culture, the T cells were harvested, washed, and restimulated with 3/28 beads (3:1 ratio) for 24 hr; the resultant supernatant was harvested and tested for cytokine content by Luminex multi-analyte method. All results shown are expressed as cytokine level in pg per ml per 1 × 10^6 cells/ml/24 hr. The Th2 cytokine IL-10 was also evaluated: all values were less than 20 pg/ml per 1 × 10^6 cells/ml/24 hr.
as §1, with “22A-22D illustrate” for “21A-21D illustrates”, “IL-2, IFN-γ,” for “IL-4, IL-5,”, “GM-CSF” for “IL-13”, “inflammatory cytokines IL-17 and TNF-α were” for “Th2 cytokine IL-10 was”

The subject of experiment [4] is human CD4+ and CD8+ T cells. As to the kind of experiment: RNA expression analysis (Luminex Quantigene) after 3-day de-differentiation culture. The format is cell-based. As to conditions: relative to control Th1/Tc1 culture, temsirolimus 1 µM. On the procedure:
At the end of the de-differentiation interval, cells were harvested, RNA was isolated, and RNA expression analysis was performed by Luminex Quantigene method. All results shown represent relative RNA expression, with results normalized to a value of 1.0 for the Th1/Tc1 control culture.

The test system of experiment [5] is human CD4+ and CD8+ T cells. As to the kind of experiment: Western blot for mTORC1 complex protein Raptor after 3-day de-differentiation culture. The format is cell-based. The text has this:
After the 3-day culture interval, the T cells were harvested, and protein was isolated and subjected to western blot analysis for the mTORC1 complex protein, Raptor, and the housekeeping gene, Actin.

The subject of experiment [6] is human CD4+ and CD8+ T cells. As to the kind of experiment: Western blot for Raptor, Rictor, p70S6K, SGK1 after 3-day de-differentiation culture. Format: cell-based. To be noted: relative to control culture without the three inhibitors; temsirolimus 1 µM, Vitamin D 0.03-1.0 nM, Daclizumab 50 µg/ml. The text has this: After the 3-day culture interval, the T cells were harvested, and protein was isolated and subjected to western blot analysis for the mTORC1 complex protein, Raptor; the mTORC2 complex protein, Rictor; the post-mTORC1 protein p70S6K; the post-mTORC2 protein, SGK1; and the housekeeping gene, GAPDH.

In experiment [7] the test system is human CD4+ and CD8+ T cells. As to the kind of experiment: T cell yield at day 13 after de-differentiation interval and re-stimulation without inhibitors. Format: cell-based. To be noted: column #7; temsirolimus reduced to 0.1 µM. On the procedure: After 10 days (13 days of total culture), the T cells were harvested, enumerated, and evaluated by flow cytometry. FIG. 8 illustrates the effect of culture components during the de-differentiation interval on subsequent T cell yield (at day 13 of culture). […] After the 3-day interval, media was exchanged to fresh X-Vivo 20 without inhibitors, high-level co-stimulation was provided (3:1 bead-to-T cell ratio), and the T cell growth cytokines IL-2 (100 IU/ml) and IL-7 (10 ng/ml) were added. At day 13 of culture, viable T cells were enumerated and the overall yield is shown relative to day 0 input number.

Experiment [8] concerns T cell TCR specificities of peripheral blood mononuclear cells. Kind of experiment: RNA-based T cell receptor repertoire profiling pre- and post-etanercept therapy. Format: in vivo, human. The text has this:
FIGS. 23A & 23B depict the use of RNA-based T cell receptor sequencing to detect a widespread up- and down-regulation of T cell TCR specificities after therapy with the TNF-α inhibitor, etanercept. In FIG. 23, RNA was isolated from peripheral blood mononuclear cells from an patient pre- and post-therapy with etanercept therapy. The RNA was subjected to TCR repertoire profiling, as previously described by Rosati E, Dowds CM, Liaskou E, Henriksen EKK, Karlsen TH, Franke A. Overview of methodologies for T-cell receptor repertoire analysis. BMC Biotechnol. 2017;17(1):61.
FIGS. 36A-36B depict use of RNA-based T cell receptor sequencing to detect a widespread up- and down-regulation of T cell TCR specificities after therapy with the TNF-α inhibitor, etanercept. In FIGS. 36A-36B, RNA was isolated from peripheral blood mononuclear cells from a patient pre- and post-therapy with etanercept therapy. The RNA was subjected to TCR repertoire profiling, as previously described by Rosati E, Dowds CM, Liaskou E, Henriksen EKK, Karlsen TH, Franke A. Overview of methodologies for T-cell receptor repertoire analysis. BMC Biotechnol. 2017;17(1):61.

For experiment [9], the system named is human CD4+ and CD8+ T cells. Kind of experiment: Western blot for pro-apoptosis molecule BIM after 3-day de-differentiation culture. To be noted: 1:3 bead-to-T cell ratio; temsirolimus, Vitamin D 0.1 nM, Daclizumab 50 µg/ml. Format: cell-based. The text has this: After the 3-day culture interval, the T cells were harvested, and protein was isolated and subjected to western blot analysis for the pro-apoptosis-related gene, BIM, and the housekeeping gene, Actin.

Where [10] appears, read: 3-day culture, bead-to-T cell ratio 1:3, Vitamin D 0.1 or 1.0 nM.
Setting [11] is: patient PBMC, post- versus pre-etanercept.

In the case of `Nc1nc2[nH]cc(CCc3ccc(C(=O)N[C@@H](CCC(=O)O)C(=O)O)cc3)c2c(=O)[nH]1` [pemetrexed], the “T cell number after re-differentiation in pure TREG polarization (IL-2 plus TGF-β without IL-4)” value in experiment [1] (most stringent step 1, cultures #20 and #21, in the presence of pemetrexed) is on record as “unsuccessful”. For the same molecule, the “T cell number after re-differentiation in TREG-Th2 polarization” value in experiment [1] (step 1 temsirolimus, vitamin D, anti-IL-2 receptor antibody, pemetrexed 10 nM in step 2, 10 days) is reported as “sufficient T cells”. The “CD4 cells expressing GATA3” value in [2] (end of culture, hybrid condition with pemetrexed 10 nM versus no inhibitor or temsirolimus) is “highest end-of-culture Th2-associated GATA3 expression”. Also, the “CD8+ T cells expressing TBET” value in experiment [2] (hybrid condition in the presence of pemetrexed 10 nM) is listed as “lowest levels”. Further, the “CD4 cells expressing TBET” value in experiment [2] (hybrid polarization condition with pemetrexed 10 nM versus no inhibitor or temsirolimus) was “most consistently reduced TBET values”. In experiment [3] (TREG-Th2 hybrid culture supplemented with pemetrexed 10 nM), the GM-CSF secretion result was “higher degree”. Further, in [3], the “ability of T cells to secrete IL-5” value is on record as “fully preserved” and the “ability of T cells to secrete IL-13” value is “fully preserved”.
As to `CO[C@H]1C[C@@H]2CC[C@@H](C)[C@@](O)(O2)C(=O)C(=O)N2CCCC[C@H]2C(=O)O[C@H]([C@H](C)C[C@@H]2CC[C@@H](OC(=O)C(C)(CO)CO)[C@H](OC)C2)CC(=O)[C@H](C)/C=C(\C)[C@@H](O)[C@@H](OC)C(=O)[C@H](C)C[C@H](C)/C=C/C=C/C=C/1C` [temsirolimus], in [4] (setting [10]), the “Granzyme B RNA expression” value was “reduction”, the “IFN-gamma RNA expression” value is listed as “reduction” and the “IL-10 RNA expression” value is recorded as “reduction”. Further, in experiment [4] (Vitamin D 1.0 nM), the “IL-7 receptor alpha RNA expression” value is recorded as “capable of up-regulating”, the “KLF4 RNA expression” value is on record as “neither temsirolimus nor Vitamin D alone increased” and the “KLF10 RNA expression” value is “acts alone to beneficially up-regulate”. For the same molecule, in [4] (Vitamin D 0.1 to 1.0 nM), the “HIF-1-α RNA expression” value is given as “did not down-regulate”, the “Nanog transcription factor RNA expression” value is “up-regulation”, the “STAT1 RNA expression” value is reported as “acts alone to beneficially down-regulate” and the “T-BET RNA expression” value is “acts alone to beneficially down-regulate”. For the same molecule, in [5] (culture 9, temsirolimus 0.3 µM, versus 1.0 µM), the “Raptor expression at temsirolimus 0.3 µM” value was “higher levels of Raptor expression”. For the same molecule, the “temsirolimus dose for optimal down-regulation of Raptor” value in experiment [5] (in combination with Vitamin D) was 1.0 µM. The “Rictor expression (western blot)” value in experiment [6] is given as “effective”. For the same molecule, the “T cell yield at day 13 with temsirolimus 0.1 µM” value in experiment [7] is recorded as “reduced the resultant T cell yield”. For the same molecule, in experiment [3], the “ability of T cells to secrete IL-5” value is listed as “blunted” and the “ability of T cells to secrete IL-13” value is listed as “blunted”.
In the case of etanercept, the “post-treatment frequencies of contracted T cell clones (SEQ ID NOs: 1-3 and 5)” value in experiment [8] (decreased from frequencies of 259 to 598 pre-etanercept) was found to be 0.01. In addition, in experiment [8] (setting [11]), the “TCR specificities down-regulated in the post-therapy sample” value is “approximately 25%” and the “TCR specificities up-regulated in the post-therapy sample” value is “approximately 25%”. In experiment [8] (post- versus pre-etanercept), the “T cell clonal contraction” value was “more than 4 log” and the “T cell clonal expansion” value is on record as “more than 4 log”.

B1: Daclizumab: anti-IL-2 receptor monoclonal antibody (antibody, chains of the INN, looked up, V domains shown)
VH: QVQLVQSGAEVKKPGSSVKVSCKASGYTFTSYRMHWVRQAPGQGLEWIGYINPSTGYTEYNQKFKDKATITADESTNTAYMELSSLRSEDTAVYYCARGGGVFDYWGQGTLVTVSS
VL: DIQMTQSPSTLSASVGDRVTITCSASSSISYMHWYQQKPGKAPKLLIYTTSNLASGVPARFSGSGSGTEFTLTISSLQPDDFATYYCHQRSTYPLTFGQGTKVEVK
In the case of B1, in [5] (1:3 bead-to-T cell ratio, temsirolimus 1.0 µM, Vitamin D 0.1 nM, daclizumab 50 µg/ml), the “Raptor expression (western blot, normalized by actin)” value was “beneficial role in suppressing”. In [6], the “Rictor expression (western blot)” value is on record as “did not abrogate”. Moreover, in experiment [9], the “BIM expression (western blot, normalized by actin)” value was “beneficial role in suppressing”.

These data come from US20230270781A1, “TREATMENT OR PREVENTION OF PRO-INFLAMMATORY DISEASES OR CONDITIONS USING INDUCED REGULATORY T (ITREG) CELLS” (RAPA THERAPEUTICS, LLC, priority 2020, published 2023).
